Measurements published in the Deep4Chem optical property database.
Values belong to the compound of their own block, whether it stands above or below them.

Assay: solvent given as SMILES

Compound: CC(C)(C)c1ccc2c3c(c4ccc(C(C)(C)C)cc4c2c1)=[N+]1C(=C(c2ccccc2)c2c(Br)c4c5ccc(C(C)(C)C)cc5c5cc(C(C)(C)C)ccc5c4n2[B-]1(F)F)C=3Br
emission maximum (in C1CCCCC1): 711 nm
emission maximum (in C1CCOC1): 715 nm
emission maximum (in CC#N): 714 nm
emission maximum (in Cc1ccccc1): 715 nm
emission maximum (in ClCCl): 717 nm

Compound: O=P1(c2ccccc2)C(c2cc(C(F)(F)F)cc(C(F)(F)F)c2)=Cc2c3ccc4cccc5ccc(c6cc(-c7ccccc7)n1c26)c3c45 (centres undefined)
emission maximum (in C1CCCCC1): 501 nm
emission maximum (in C1CCOC1): 521 nm
emission maximum (in C1COCCO1): 514 nm
emission maximum (in CC#N): 531 nm
emission maximum (in CC(C)=O): 526 nm
emission maximum (in CO): 524 nm
emission maximum (in Cc1ccccc1): 514 nm
emission maximum (in ClC(Cl)Cl): 514 nm
emission maximum (in ClCCl): 521 nm

Compound: CC(C)(C)c1ccc2cc3c4cccc5cccc(c6cc(C(C)(C)C)cc(c2c1)c63)c54
emission maximum (in CC1CCCCC1): 445 nm

Compound: O=S(=O)(c1ccc2c(c1)c1ccccc1n2-c1ccccc1)c1ccc2c(c1)c1ccccc1n2-c1ccccc1
emission maximum (in ClCCl): 372 nm

Compound: N#Cc1c(N2CCCCC2)cc(-c2cccc3ccccc23)c2c1-c1ccccc1C2=O
emission maximum (in C1CCOC1): 526 nm

Compound: CCCCCCCCC1(CCCCCCCC)c2cc(-c3ccc(C#N)cc3)ccc2-c2ccc(-c3ccc(C#N)cc3)cc21
emission maximum (in ClC(Cl)Cl): 385 nm

Compound: CCN(CC)c1ccc2ccc(=O)oc2c1
emission maximum (in CC(C)=O): 430 nm
emission maximum (in CCCCCC): 392 nm
emission maximum (in CCCCCCC): 390 nm
emission maximum (in CCCCO): 442 nm
emission maximum (in CCCO): 442 nm
emission maximum (in CCO): 443 nm
emission maximum (in CCOCC): 405 nm
emission maximum (in CN(C)C=O): 440 nm
emission maximum (in CO): 445 nm
emission maximum (in Cc1ccccc1): 418 nm
emission maximum (in ClC(Cl)(Cl)Cl): 412 nm
emission maximum (in ClC(Cl)Cl): 435 nm
emission maximum (in ClCCl): 466 nm
emission maximum (in OCCO): 445 nm
emission maximum (in c1ccccc1): 395 nm

Compound: Cc1csc2[n+]1[B-](F)(F)n1c(c3cccc4cccc1c43)=N2
emission maximum (in C1CCOC1): 500 nm
emission maximum (in CC#N): 499 nm
emission maximum (in CCCCCC): 488 nm
emission maximum (in Cc1ccccc1): 502 nm
emission maximum (in ClCCl): 527 nm

Compound: c1ccc2c(c1)c1ccccc1c1ccccc21
emission maximum (in ClCCl): 355 nm

Compound: [C-]#[N+]c1ccc(-c2ccc(N)cc2)cc1
emission maximum (in C1CCCCC1): 354 nm
emission maximum (in C1CCOC1): 396 nm
emission maximum (in C1COCCO1): 383 nm
emission maximum (in CC#N): 410 nm
emission maximum (in CC(C)=O): 407 nm
emission maximum (in CCCCCC): 353 nm
emission maximum (in CCOC(C)=O): 397 nm
emission maximum (in CN(C)C=O): 423 nm
emission maximum (in CO): 419 nm
emission maximum (in CS(C)=O): 424 nm
emission maximum (in Cc1ccccc1): 371 nm
emission maximum (in ClC(Cl)Cl): 398 nm
emission maximum (in ClCCl): 390 nm
emission maximum (in O): 457 nm
emission maximum (in c1ccncc1): 415 nm

Compound: CN(C)c1ccc(C#Cc2ccc3ccc4c(C#Cc5ccc(N(C)C)cc5)ccc5ccc2c3c54)cc1
emission maximum (in C1COCCO1): 489.2 nm
emission maximum (in CC(C)=O): 569.6 nm
emission maximum (in CCCCCC): 460.4 nm
emission maximum (in CCCCCCO): 528.2 nm
emission maximum (in CCO): 540 nm
emission maximum (in CCOC(C)=O): 523.5 nm
emission maximum (in CO): 554 nm
emission maximum (in Cc1ccccc1): 483.7 nm
emission maximum (in ClCCl): 532.8 nm

Other lines, results leading:

emission maximum (in CCOC(C)=O): 476 nm
Compound: CCn1ncc2c3c(C#N)c4c5ccccc5n(CC)c4nc3ccc21

emission maximum (in C1CCOC1): 457 nm
Compound: COc1ccc(-c2cc3oc(=O)cc(C)c3cc2-c2ccc(OC)c(OC)c2)cc1OC

emission maximum (in CC#N): 543 nm
Compound: Cc1ccc2c(nc3c(=O)n(C)c(=O)nc-3n2C)c1C

emission maximum (in CCO): 527 nm
Compound: CCOC(=O)c1cc(C(=O)OCC)c2cccc(O)c2n1

emission maximum (in ClCCl): 580 nm
Compound: CC1=C(I)C(C)=[N+]2C1=C(c1c(-c3ccccn3)nc3ccccn13)c1c(C)c(I)c(C)n1[B-]2(F)F

emission maximum (in ClC(Cl)Cl): 517.73 nm
Compound: CC1=CC(C)=[N+]2C1=C(c1ccc(I)cc1)c1c(C)cc(C)n1[B-]2(OC(C)C)OC(C)C
